Results on five compounds are retold here after patent US20170260210A1, “METHOD FOR PREPARING MARMYCIN A AND ANALOGUES THEREOF, AND ALSO USES THEREOF” (Centre national de la recherche scientifique, priority 2014, published 2017).

pIC50: −log10 of the molar value. “Also recorded” adds a separate entry of the source.

The test system of series [1] is MDA-MB-231 cells (human breast cancer cells). Kind of series: Cell viability assay (CellTiter-Blue) on MDA-MB-231 cells. In kind it is cell-based. The protocol: MDA-MB-231 cells (human breast cancer cells) purchased from ATCC were held in McCoy's 5A medium, supplemented with 10% foetal bovine serum (FBS)) and 1× Antibiotic-Antimycotic (all from Gibco®) at 37° C. with 5% CO2.
Cell viability was measured by seeding 2000 cells per well in a 96-well plate. N-Acetyl Cystein (NAC, A9165 Sigma) or Pan-caspase zVAD-FMK inhibitor (550377 from BD pharmingen) were pre-treated for 1 hour or 30 minutes respectively before treatment with the assayed compounds. The reagent <<CellTiter-Blue® Reagent>> (20 μl/well) was added after a treatment time of 24, 48 or 72 hours, and the cells were incubated for one hour before fluorescence detection (560(20)Ex/590(10)Em) on a Perkin Elmer Wallac 1420 Victor2 Microplate Reader.
The assayed compounds were doxorubicin, marmycin A, artesunate, artesumycin and a combination of marmycin A and artesunate (cf. FIG. 9).
Background: Resazurin is reduced to fluorescent resorufin, in cell work by metabolically active cells.

Series [2] has as its system HMLER CD24- cancerous stem cell line (HMLER CD44high/CD24low). The series can be described thus: Cell viability assay on HMLER CD24- cancerous stem cell line. It counts as cell-based, human. The protocol: (§1) Cell viability: cell viability was assessed using the following protocol:
(§2) Seeding 1000 cells/well in a 96-well plate. The cells were treated for 72 hours. After a treatment time of 72 hours the reagent CellTiter-Blue® Reagent (G8081, Promega) was added and the cells incubated for one hour before recording fluorescence intensities (Excitation, 560/20 nm; Emission, 590/10 nm) using a Perkin Elmer Wallac 1420 Victor2 Microplate Reader.
(§3) Cell culture: the following material was used: saline buffer <<Dulbecco's Phosphate-Buffered Saline>> (14190-094, 500 mL, Gibco), DMEM/F12 (31331-028, 500 mL, Gibco), DMEM high-glucose with UltraGlutamine (BE12-604F/U1, BioWhittaker, Lonza), McCoy's 5A medium (Modified) (26600-023, Gibco), RPMI 1640 with L-glutamine (BE12-702F/U1, BioWhittaker, Lonza), Foetal Bovine Serum—FBS, 10270-106, Gibco), Hydrocortisone (H0888, Sigma), Insulin (10516, Sigma or 19278, Sigma), BD Epidermal growth factor human recombinant (hEGF, 354052, BD Biosciences), PEN-STREP (DE17-602E, BioWhittaker, Lonza), puromycin dihydrochloride (A11138-02, 460 Life Technologies).
The human mammary epithelial cell line was infected with a retrovirus carrying hTERT, SV40 and the oncogenic allele HrasV12, called HMLER CD44high/CD24 low cells, not expressing E-cadherin and Vimentin (reference HMLER CD24low or HMLER CD44+/CD24−), courteously offered by A. Puisieux (INSERM).
(§4) The HMLER CD44^high/CD24^low cells (Cancer stem cells—CSCs), HMLER CD44^high/CD24^high (non-CSCs) were cultured in DMEM/F12 supplemented with 10% FBS, 10 μg/mL insulin, 0.5 μg/mL hydrocortisone, 10 ng/mL hEGF and 0.5 μg/mL of puromycin.

Series [3] relates to HMLER ID2 cancerous cell line. Kind of series: Cell viability assay on HMLER ID2 cancerous cell line. In kind it is cell-based, human. Particulars: HMLER ID2 cells. The protocol:
as §1, §2, §3
The line referenced HMLER ID2 is a hTert, SV40, HRasV12 transformed line, isogenic but non-stem.
as §4

The test system of a further series is lysosomes of U2OS cells. The series can be described thus: Cell location by fluorescence (LysoTracker DND-22, GFP-Lamp1, DAPI) in U2OS cells. In kind it is cell-based. Particulars: U2OS cells treated 24 hours with 10 μM. The protocol:
U2OS cells cultured to less than 40% confluence were treated for 24 hours with 10 μM of compound unless otherwise indicated. The marker LysoTracker® Blue DND-22 (L7525, Molecular Probes@) was added 30 minutes before fixing. GFP-Lamp1 was transiently transfected following the manufacturer's instructions. To summarise, […] of CellLight® Lysosomes-GFP BacMam 2.0 (C10596, Life Technologies) were mixed with […] of U2OS culture medium and added to each well of a 24-well plate. After overnight incubation (16 hours), the cells were washed and treated with Marmycin A as indicated in Example 9. For analysis by immunofluorescence, the cells were fixed 12 minutes in 2% formaldehyde/PBS, permeabilised 10 min with 0.1% Triton X/PBS and […] for 1 h with 5% BSA, 0.2% Tween-20/PBS (blocking buffer). Cover glasses were incubated with anti-LAMP1, p62, antibodies, diluted to 1/100 in the blocking buffer overnight at 4° C. The cells were then washed 3 times with 0.2% Tween-20/PBS, and incubated as described above with anti-mouse Alexa 488-conjugated secondary antibody (A11029, Invitrogen) diluted to 1/500 in blocking buffer. The cover glasses were washed as described above and mounted with VectaShield® mounting medium for analysis by fluorescence with or without DAPI (Vector Laboratories Ltd). The images were obtained with a Leica microscope […] and analysed with ImageJ software. […]

For series [4], the system named is U2OS cells (osteosarcoma cancer line). The series can be described thus: Cell proliferation/viability assay (CellTiter-Blue) on U2OS cells. Conditions: Homo sapiens, at 72 hours. In kind it is cell-based. The protocol: (§5) U2OS and A2780 cells purchased from ATCC were held in McCoy's 5A or RPMI 1640 medium respectively, supplemented with 10% foetal bovine serum (FBS)) and 1× Antibiotic-Antimycotic (all from Gibco®) at 37° C. with 5% CO2. Measurement of cell viability was carried out by seeding 2000 cells per well in a 96-well plate. N-Acetyl Cystein (NAC, A9165 Sigma) or Pan-caspase zVAD-FMK inhibitor (550377 by BD pharmingen) were pre-treated for 1 hour or 30 minutes respectively before treatment with Marmycin A. The reagent <<CellTiter-Blue®>> Reagent) (20 μl/well) was added after 24, 48, or 72 treatment hours, and the cells were incubated for one hour before fluorescence detection (560(20)Ex/590(10)Em) on a Perkin Elmer Wallac 1420 Victor2 Microplate Reader.

Series [5] relates to A2780 cells (ovarian cancer line). Kind of series: Cell proliferation/viability assay (CellTiter-Blue) on A2780 cells. Particulars: Homo sapiens, at 72 hours. In kind it is cell-based. How it is done:
as §5

Series [6] deals with HT1080 cells (fibrosarcoma line). Kind of series: Cell viability assay (CellTiter-Blue) on HT1080 cells. In kind it is cell-based. How it is done: as §5
The same protocol was followed to evaluate cell viability of HT1080 cells in the presence of compound 33 of Example 6 (called Oxamethoxymarmycin), doxorubicin or etoposide.

Series [7] relates to DNA-damage response (phosphorylation of H2AX on ser139, phosphorylation of P53, induction of P21). The series can be described thus: Western Blot analysis of DNA-damage response. In kind it is cell-based. Conditions: cells treated as in Example 10. The protocol:
The cells treated as indicated in Example 10 were washed twice in PBS and lysed with Laemmli buffer 2×. The cell extracts were brought to the boil for five minutes at 100° C. and quantified with a Nanodrop 2000 device (Thermal Scientific). 100 μg of protein lysate were separated with 4-20% Mini-PROTEAN® TGX Stain-Free™ gel (BioRad) and transferred onto a nitrocellulose membrane (Amersham). Stains were detected with different antibodies such as anti-β-actin (ab8226, Abcam), anti-p62 (610833, BD Transduction Laboratories™), anti-H2AX (PA1-14198, Thermal Scientific), anti-gH2AX (Ser139) (#2577, Cell Signaling), anti-p21, anti-p53 (1C12) (#2524, Cell Signaling), anti-p-p53, anti-LC3B (#2775, Cell Signaling), anti-BID, diluted to 1/1000 in 5% BSA, 0.1% Tween-20/TBS.
A general note: In western blotting, separated proteins are transferred to a membrane and probed.

In series [8] the test system is human breast, prostate, lung, colon, ovarian cancer lines and leukaemia. Particulars: cited from earlier work.
The mark [9] stands for this setting: Homo sapiens, HT-1080, at 72 hours.

As to `Cc1ccc2c3c(ccc2c1)C(=O)c1c(ccc2c1NC1(C)CC2O[C@@H](C)[C@@H]1OC(=O)CCC(=O)OC1O[C@@H]2O[C@@]4(C)CC[C@H]5[C@H](C)CC[C@@H]([C@H]1C)[C@@]25OO4)C3=O` (stereo partly drawn) [artesumycin], the “cytotoxic activity compared with other treatments” value in series [1] is “higher than that of marmycin A and also higher than that of marmycin A combined with artesunate; also recorded: synergic effect”. Also, the pIC50 in [1] (Homo sapiens, 72 h treatment) is 6.05; in [2] (Homo sapiens, HMLER CD24- cancerous stem cells, 72 hours), 7.00; in series [3] (Homo sapiens, 72 hours), 7.01. The cell viability entry is reported as “less than 50%” in series [1] (concentration of 0.9 μm); “about 18%” in series [2] (HMLER CD24- cells, concentration of 1 μm, 72 hours); “about 44%” in series [3] (concentration of 0.1 μm, 72 hours). Further, the “cytotoxic activity compared with artesunate” value in series [2] (HMLER CD24- cells) and in [3] was “higher than that of artesunate” in each case. The cell location result in the series with lysosomes of U2OS cells is reported as “accumulates in the lysosomes”.
For the compound `COc1cccc2c1C(=O)c1c(O)c3c(c(O)c1C2=O)C[C@@](O)(C(=O)CO)C[C@@H]3O[C@H]1C[C@H](N)[C@H](O)[C@H](C)O1` [doxorubicin, reference compound], the figures for the pIC50 in series [4], in series [5] and in series [6] (setting [9]) were 7.00, 7.22 and 7.46, respectively. In addition, the “DNA-damage response (Western Blot)” value in series [7] is listed as “generates a DNA-damage response”.
In series [6] (setting [9]), `COc1cc([C@@H]2c3cc4c(cc3[C@@H](O[C@@H]3O[C@@H]5CO[C@@H](C)O[C@H]5[C@H](O)[C@H]3O)[C@H]3COC(=O)[C@H]23)OCO4)cc(OC)c1O` [etoposide] showed a negative-log IC50 (pIC50) of 6.30.
Consider `Cc1ccc2c3c(ccc2c1)C(=O)c1c(ccc2c1NC1(C)CC2O[C@@H](C)[C@@H]1O)C3=O` (stereo partly drawn) [marmycin A], for which the values for the pIC50 in series [4] and in [5] were 4.99 and 5.01, respectively. Also, in the series with lysosomes of U2OS cells, the cell location result was “not located at the cell nucleus but at the site of the lysosomes; also recorded: accumulates in the lysosomes”. Moreover, the “DNA-damage response (Western Blot)” value in series [7] is reported as “only scarcely damages caspase-dependent DNA”. For the same compound, in series [8], the cytotoxic properties entry was “cytotoxic properties”.
The compound Oxamethoxymarmycin showed a pIC50 in series [6] (at 72 hours) of 4.12.

A word on the pIC50: it is the IC50 on a negative log10 scale, so that one unit is a factor of ten.
